Patent publication US20260034119A1, “5-METHOXY-N,N-[…][…], THEIR […], AND METHODS FOR TREATMENT OF NEUROLOGICAL, […], AND SUBSTANCE USE DISORDERS” (priority 2023, published 2026)
Where a chain is given by its changes, count along the chain named. Where “and” joins values, the source holds several entries; their conditions need not be identical. Identical values can stand only once. Entries after “also recorded” stand apart in the source; their conditions may differ. Like-named read-outs stand apart in the source and are kept apart here.

How the values were obtained:
5-HT2A V366N = molecular target: T1, 5-HT2A V366N (Homo sapiens, UniProt P28223, V366N); test: Gq BRET at mutant 5-HT2A V366N; type: cell-based
T1 construct: expressed in transfected cells; host or cells: HEK293-T

5-HT2A [1] = molecular target: T2, 5-HT2A (Homo sapiens, UniProt P28223)
[2] = Microsomal stability, human liver microsomes; type: in vitro ADME; conditions: versus the DMT analogs
Description: Microsomal incubations were carried out in 96-well plates in 5 aliquots of 30 μL each (one for each time point). Liver microsomal incubation medium comprised of phosphate buffer (100 mM, pH 7.4), MgCl2 (3.3 mM), NADPH (3 mM), glucose-6-phosphate (5.3 mM), glucose-6 phosphate dehydrogenase (0.67 units/ml) with 0.42 mg of liver microsomal protein per ml. In the control reactions the NADPH-cofactor system was substituted with phosphate buffer. Test compounds (2 μM, final solvent concentration 1.6%) were incubated with microsomes at 37° C., shaking at 100 rpm. Each reaction was performed in duplicates. Five time points over 90 minutes were analyzed. The reactions were stopped by adding 5 volumes of methanol containing internal standard to incubation aliquots, followed by protein sedimentation by centrifuging at 5500 rpm for 4 minutes. Supernatants were analyzed using the HPLC system coupled with tandem mass spectrometer. The elimination constant (kel), half-life (t1/2) and intrinsic clearance (Clint) were determined in plot of […] versus time, using linear regression analysis.

human 5-HT1A = molecular target: T3, human 5-HT1A (Homo sapiens, UniProt P08908); test: cell-based
T3 sequence (P08908 1-422): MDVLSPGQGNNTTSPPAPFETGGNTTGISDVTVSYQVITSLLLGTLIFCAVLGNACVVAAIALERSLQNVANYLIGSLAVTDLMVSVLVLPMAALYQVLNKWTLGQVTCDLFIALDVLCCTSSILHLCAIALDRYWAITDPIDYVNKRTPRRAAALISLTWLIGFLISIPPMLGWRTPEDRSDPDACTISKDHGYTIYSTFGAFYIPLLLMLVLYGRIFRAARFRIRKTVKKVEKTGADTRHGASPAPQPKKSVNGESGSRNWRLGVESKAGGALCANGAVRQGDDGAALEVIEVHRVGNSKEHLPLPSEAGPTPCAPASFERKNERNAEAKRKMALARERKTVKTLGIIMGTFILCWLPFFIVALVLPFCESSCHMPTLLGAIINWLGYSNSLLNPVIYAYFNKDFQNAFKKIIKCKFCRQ

5-HT2A [3] = molecular target: T2, 5-HT2A; test: cell-based
5-HT1A [4] = molecular target: T4, 5-HT1A (Homo sapiens, UniProt P08908); test: cell-based
5-HT1A A365N = molecular target: T5, 5-HT1A A365N (Homo sapiens, UniProt P08908, A365N); test: Gi1 BRET at mutant 5-HT1A A365N; type: cell-based
T5 construct: expressed in transfected cells; host or cells: HEK293-T
T5 sequence (P08908 1-422 A365N): T3 sequence (P08908 1-422) with A365N

5-HT1A [5] = molecular target: T4, 5-HT1A; test: BRET signaling assay: 5-HT1A-mediated activation of heterotrimeric Gi1 (TRUPATH, HEK293-T)
MAO-A = molecular target: T6, MAO-A (Homo sapiens, UniProt P21397); test: MAO-A activity (metabolism of compound); conditions: versus the DMT analogs
T6 sequence (P21397 1-527): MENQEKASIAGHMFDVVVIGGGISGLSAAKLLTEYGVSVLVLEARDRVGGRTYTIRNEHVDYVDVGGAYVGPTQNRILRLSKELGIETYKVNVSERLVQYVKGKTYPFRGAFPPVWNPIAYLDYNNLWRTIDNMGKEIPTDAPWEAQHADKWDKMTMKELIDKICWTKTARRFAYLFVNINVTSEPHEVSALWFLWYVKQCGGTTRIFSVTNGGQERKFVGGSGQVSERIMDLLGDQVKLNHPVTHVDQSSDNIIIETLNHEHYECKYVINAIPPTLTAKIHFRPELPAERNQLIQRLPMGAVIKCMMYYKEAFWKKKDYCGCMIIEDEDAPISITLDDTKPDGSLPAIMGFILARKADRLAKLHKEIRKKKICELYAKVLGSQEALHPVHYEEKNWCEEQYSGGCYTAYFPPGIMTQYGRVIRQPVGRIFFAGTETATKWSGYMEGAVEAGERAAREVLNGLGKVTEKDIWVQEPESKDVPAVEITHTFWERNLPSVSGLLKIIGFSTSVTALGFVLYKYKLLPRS

5-HT1A N386V = molecular target: T7, 5-HT1A N386V (Homo sapiens, UniProt P08908, N386V); test: Gi1 BRET at mutant 5-HT1A N386V; type: cell-based
T7 construct: expressed in transfected cells; host or cells: HEK293-T
T7 sequence (P08908 1-422 N386V): T3 sequence (P08908 1-422) with N386V

[6] = Human plasma protein binding; type: in vitro ADME
[7] = Mouse plasma protein binding; type: in vitro ADME
5-HT2A [8] = molecular target: T2, 5-HT2A; test: cell-based; set-up: expressed in transfected cells; host or cells: HEK293-T; conditions: for Emax: read-out: 5-HT2A (IP1) Emax (%5-HT)
5-HT2B = 5-HT2B (Homo sapiens, UniProt P41595); test: IP1 functional assay 5-HT2B; type: cell-based; conditions: for Emax: read-out: 5-HT2B (IP1) Emax (%5-HT), Table 3
C57BL/6J mice = test: Social interaction test after chronic social defeat stress (CSDS); conditions: one s.c. administration
[9] = EC50 (nM), Gi1 BRET, 5-HT1A A365N^6.55

T1 sequence (P28223 whole entry V366N): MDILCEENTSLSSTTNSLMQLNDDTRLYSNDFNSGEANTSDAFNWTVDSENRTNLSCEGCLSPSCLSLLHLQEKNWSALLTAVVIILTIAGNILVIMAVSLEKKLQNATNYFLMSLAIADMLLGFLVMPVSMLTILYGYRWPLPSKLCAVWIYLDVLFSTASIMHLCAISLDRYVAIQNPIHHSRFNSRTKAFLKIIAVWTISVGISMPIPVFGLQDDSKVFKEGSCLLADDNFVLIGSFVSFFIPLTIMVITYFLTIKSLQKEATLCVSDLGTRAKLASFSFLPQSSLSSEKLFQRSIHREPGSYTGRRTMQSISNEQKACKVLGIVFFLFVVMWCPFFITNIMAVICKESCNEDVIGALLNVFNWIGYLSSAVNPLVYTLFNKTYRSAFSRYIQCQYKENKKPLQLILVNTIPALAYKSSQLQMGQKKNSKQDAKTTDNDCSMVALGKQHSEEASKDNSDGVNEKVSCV
T2 sequence (P28223 whole entry): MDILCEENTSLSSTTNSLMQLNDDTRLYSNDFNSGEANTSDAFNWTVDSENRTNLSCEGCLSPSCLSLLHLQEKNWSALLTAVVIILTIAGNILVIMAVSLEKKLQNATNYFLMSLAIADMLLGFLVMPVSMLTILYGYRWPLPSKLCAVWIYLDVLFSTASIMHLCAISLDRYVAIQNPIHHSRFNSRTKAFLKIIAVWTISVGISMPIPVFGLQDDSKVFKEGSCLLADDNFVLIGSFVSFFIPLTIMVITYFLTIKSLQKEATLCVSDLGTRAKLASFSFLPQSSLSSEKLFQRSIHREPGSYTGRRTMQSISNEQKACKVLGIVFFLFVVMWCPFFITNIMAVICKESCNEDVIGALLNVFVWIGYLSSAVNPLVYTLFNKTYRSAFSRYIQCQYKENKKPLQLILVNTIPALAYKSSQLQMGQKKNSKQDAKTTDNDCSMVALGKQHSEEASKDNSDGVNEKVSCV
Chain of 5-HT2B (P41595 whole entry, species assumed): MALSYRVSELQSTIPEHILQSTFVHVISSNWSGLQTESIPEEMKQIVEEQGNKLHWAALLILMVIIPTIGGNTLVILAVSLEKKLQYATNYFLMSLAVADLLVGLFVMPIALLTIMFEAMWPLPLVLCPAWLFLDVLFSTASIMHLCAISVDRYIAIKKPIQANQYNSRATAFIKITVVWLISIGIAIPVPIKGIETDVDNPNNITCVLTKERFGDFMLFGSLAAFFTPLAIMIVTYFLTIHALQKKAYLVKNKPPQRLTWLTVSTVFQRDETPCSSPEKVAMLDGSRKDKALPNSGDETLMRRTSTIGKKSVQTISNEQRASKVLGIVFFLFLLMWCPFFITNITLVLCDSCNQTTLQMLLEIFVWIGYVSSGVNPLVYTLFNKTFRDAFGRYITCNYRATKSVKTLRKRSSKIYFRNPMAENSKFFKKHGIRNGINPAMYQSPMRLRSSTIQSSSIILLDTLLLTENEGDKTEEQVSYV

Row | Compound | microsomal stability in human microsomes [2] | EC50 (human 5-HT1A) | EC50 (5-HT2A [3]) [nM] | EC50 (5-HT1A [4]) [nM] | EC50 (5-HT1A A365N; [9]) [nM] | EC50 (5-HT1A [5]; EC50 (nM), Gi1 BRET, 5-HT1A WT) [nM] | EC50 (5-HT2A [3]; EC50 (nM), Gq BRET, 5-HT2A WT) [nM] | further results
1 | CCN(CC)C(=O)[C@@H]1C=C2c3cccc4[nH]cc(c34)C[C@H]2N(C)C1 [LSD, reference compound] |  |  |  |  |  |  |  | effect of 5-HT2A V366N mutation on potency and efficacy (5-HT2A V366N; mutant vs wildtype 5-HT2A): increase in signaling efficacy; Efficacy as %5HT 5-HT2A BRET Gq (5-HT2A [1]; Table 6, commercial ligands): 82.4 %5HT
2 | CCCN(CC)CCc1c[nH]c2ccc(OC)c(F)c12 [Compound 29, N-ethyl-(2-(4-fluoro-5-methoxy-1H-indol-3-yl)ethyl)propan-1-amine] | greater stability in human microsomes versus the DMT analogs | 0.151 nM | 155 | 0.95 |  |  |  | 
3 | CN(C)CCc1c[nH]c2ccc(O)c(F)c12 [Compound 40, 3-(2-(dimethylamino)ethyl)-4-fluoro-1H-indol-5-ol] |  | 0.251 nM | 7.46 | 1.13 | 5.68 | 1.13 | 7.46 | 
4 | C=CCN(C)CCc1c[nH]c2ccc(OC)c(F)c12 [4-F, 5-MeO MALT] |  |  |  |  |  |  |  | MAO A metabolism (MAO-A): markedly slower MAO A metabolism versus the DMT analogs
5 | COc1ccc2[nH]cc(CCN(C)C)c2c1F [Compound 25, 2-(4-fluoro-5-methoxy-1H-indol-3-yl)-N,N-dimethylethane-1-amine] |  | 0.186 nM | 86.5 |  |  |  | 86.5 | EC50 (5-HT2A V366N): 392 nM; EC50 (5-HT1A N386V): 3.71 nM; EC50 (5-HT1A A365N): 20.1 nM; Efficacy as %5HT (SEM) 5-HT1A BRET Gi1 (5-HT1A [5]): 103.5 1.59) %5HT; increase in signaling potency at 5-HT1A (5-HT1A [5]): 14 fold; EC50 (5-HT1A [5]; EC50 (nM)): 1.77 nM; EC50 (5-HT1A [5]; EC50 (nM) 5-HT1A BRET Gi1): 1.77 nM; decrease in potency at 5-HT2A (5-HT2A [1]; relative to 5-MeO-DMT): 3 fold
6 | COc1ccc2[nH]cc(CCN3CCCC3)c2c1 [Compound 18, 5-methoxy-N,N-pyrrolidinyl-tryptamine] |  |  |  |  | 28.9 | 2.13 | 81.5 | EC50 (5-HT2A V366N): 55.6 nM; EC50 (5-HT1A N386V): 24.9 nM; selectivity for 5-HT1A>5-HT2A (5-HT1A [5]; 5-HT1A Gi BRET vs 5-HT2A Gq BRET): > 38 fold; EC50 (5-HT1A [5]; Gi BRET EC50): 2.1 nM; increase in 5-HT1A>5-HT2A selectivity (5-HT1A [5]; cyclization of the amine moiety, relative to 5-MeO-DMT): ~38 fold
7 | CC(=O)CC(c1ccccc1)c1c(O)c2ccccc2oc1=O (stereo not drawn) [Warfarin] |  |  |  |  |  |  |  | % Recovery [6]: 108.1%; % Compound remaining at 4 h ([6]; 4 h): 108.8%; % Recovery [7]: 90.9%; % Unbound [7]: 6.4%; fu [7]: 0.064; % Compound remaining at 4 h ([7]; 4 h): 103.3%
8 | CSc1ccc2[nH]cc(CCN3CCCC3)c2c1 [Compound 69, 5-(methylthio)-3-(2-(pyrrolidin-1-yl)ethyl)-1H-indole] |  | 0.51 nM and 0.501 nM | 175 | 1.05 | 5.08 | 1.05 | 175 | 
9 | C=CCN(C)CCc1c[nH]c2ccc(OC)c(F)c12 [Compound 34, N-(2-(4-fluoro-5-methoxy-1H-indol-3-yl)ethyl)-N-methylprop-2-en-1-amine] | greater stability in human microsomes versus the DMT analogs | 2.57 nM | 156 | 8.41 |  |  |  | 
10 | CSc1ccc2[nH]cc(CCN(C)C)c2c1 [Compound 67, N,N-dimethyl-2-(5-(methylthio)-1H-indol-3-yl)ethan-1-amine] |  | 2.01 nM | 30.1 | 11.7 | 30.5 | 11.7 | 30.1 | EC50 (5-HT1A A365N; pEC50, Gi1 BRET, 5-HT1A A365N^6.55): 30.2 nM
11 | CCN(C)CCc1c[nH]c2ccc(OC)c(F)c12 [Compound 26, N-ethyl-2-(4-fluoro-5-methoxy-1H-indol-3-yl)-N-methylethan-1-amine] | greater stability in human microsomes versus the DMT analogs | 0.316 nM | 99.3 | 1.77 |  |  |  | EC50 (5-HT2A [8]): 230 nM; Emax (5-HT2A [8]): 90%; EC50 (5-HT2B): 66 nM; Emax (5-HT2B): 39%; general locomotion at the social interaction test (C57BL/6J mice; mice): no effects on general locomotion; corner time (anxiety-like behavior) (C57BL/6J mice; stressed mice): rescued; social interaction deficit induced by chronic social defeat stress (C57BL/6J mice; stressed mice, test 24 hr post drug, listed as 4-F, 5-MeO-MET): rescued; also recorded: rescuing the social interaction deficit
12 | CCCN(C)CCc1c[nH]c2ccc(OC)c(F)c12 [Compound 28, N-(2-(4-fluoro-5-methoxy-1H-indol-3-yl)ethyl)-N-methylpropan-1-amine] | greater stability in human microsomes versus the DMT analogs | 0.417 nM | 115 | 3.06 |  |  |  | EC50 (5-HT2A [8]): 250 nM; Emax (5-HT2A [8]): 106%; MAO A metabolism (MAO-A): markedly slower MAO A metabolism versus the DMT analogs; EC50 (5-HT2B): 72 nM; Emax (5-HT2B): 47%
